Measured values published in patent US11207301B2, “Sphingosine 1 phosphate receptor agonists for neuroprotection” (RECEPTOS LLC, priority 2017, dated 2021).

Tests used:
[1] = molecular target: T1, Recombinant human MAO-B (Homo sapiens, UniProt P27338); test: MAO-B inhibition, conversion of kynuramine to 4-hydroxyquinoline; format: biochemical
T1 construct: purchased Sigma-Aldrich M7441; host or cells: baculovirus infected insect cells
T1 sequence (P27338 1-520): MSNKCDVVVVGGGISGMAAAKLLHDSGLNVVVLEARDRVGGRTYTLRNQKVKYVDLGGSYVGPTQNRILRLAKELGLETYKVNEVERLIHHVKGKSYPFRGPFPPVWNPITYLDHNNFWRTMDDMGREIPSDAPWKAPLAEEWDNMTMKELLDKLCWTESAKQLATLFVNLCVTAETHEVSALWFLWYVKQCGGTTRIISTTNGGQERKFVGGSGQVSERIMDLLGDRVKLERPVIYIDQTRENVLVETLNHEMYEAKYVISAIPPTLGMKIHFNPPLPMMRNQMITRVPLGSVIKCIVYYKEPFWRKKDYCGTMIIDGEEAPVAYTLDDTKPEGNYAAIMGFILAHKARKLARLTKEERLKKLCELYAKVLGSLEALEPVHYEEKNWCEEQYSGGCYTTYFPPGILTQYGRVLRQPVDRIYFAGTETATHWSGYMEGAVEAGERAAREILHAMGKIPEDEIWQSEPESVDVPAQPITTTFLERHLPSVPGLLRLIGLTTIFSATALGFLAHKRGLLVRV
Method: The effect of a S1P receptoragonist on MAO-B activity can be assessed by measuring the inhibition of conversion of substrate kynuramine to 4-hydroxyquinoline as described in Example 4.
Compound 1 and Compound 2-S were evaluated for their ability to inhibit MAO-A and MAO-B. Inhibition of the conversion of kynuramine, a substrate for MAO-A and MAO-B, to 4-hydroxyquinoline was used to assess the inhibitory potential of Compound 1 and Compound 2-S. Recombinant human MAO-A (product number M7316) and MAO-B (product number M7441) expressed in baculovirus infected insect cells were obtained from Sigma-Aldrich, Saint Louis, Mo. USA were used as a source of purified MAOs.
Recombinant MAO-A (0.01 mg/mL, final concentrations) and MAO-B (0.02 mg/mL, final concentration) were diluted to desired concentrations in 100 mM potassium phosphate buffer (pH 7.4) containing 5 mM MgCl2. The diluted protein fractions were preincubated with various concentrations of each test compound at 37° C. for 2 min. The concentrations used were 100, 33, 10, 3.3, 1.0, 0.33 μM and acetonitrile/DMSO as vehicle control for MAO-A and 1.0, 0.3, 0.1, 0.03, 0.01, 0.003 μM and acetonitrile/DMSO as vehicle control for MAO-B. The reaction was started by addition of kynuramine to the incubation mixture. The final concentration of kynuramine was 40 μM for MAO-A and 25 μM for MAO-B. The total incubation volume was 0.250 mL. This concentration was selected to be close to the Km values of MAO-A (Km 42 μM) and MAO-B (Km 26 μM). After 10 min of incubation, aliquots (100 μL) of the reaction mixture were taken and added to 200 μL acetonitrile containing 0.5 μM IS (acetaminophen). The reaction product, 4-hydroxyquinoline was analyzed by LC-MS/MS as described below.
MS characterization and detection of kynuramine and 4-hydroxyquinoline was performed using ABI 4000 Sciex QTrap mass spectrometer utilizing a Turbo Spray. The mass spectrometer was controlled by Analyst v1.6.2. The ESI was operated in a positive ion mode and the experimental parameters were set as follows: ion spray voltage, 2000; source temperature, 550° C.; curtain gas, 20; collision gas, medium ion source gas 1, 55; ion source gas 2, 50. […]
The gradient system was used to separate the analytes with a flow rate of 0.5 ml/min using mobile phase A, water containing 0.1% formic acid and mobile phase B, acetonitrile containing 0.1% formic acid. […] The analytes were monitored using multiple reaction monitoring and the ion transitions (Q1/Q3) were as follows: 4-hydroxyquinoline 146/104 (collision energy, CE was 27; declustering potential, DP, 50, and IS (acetaminophen), 152/110 (collision energy, CE was 27; declustering potential, DP, 50). All data were analyzed using AB Sciex Analyst v1.6.2 software.

[2] = test system: cuprizone-induced mouse model of demyelination; test: Cuprizone-induced mouse model of demyelination / neuroprotection; format: in vivo, C57BL/6 mice
From the text: The effect of a S1P receptor agonist on spinal cord axial demyelination or reduction in axonal breaks can be assessed by measuring concentration of neurofilament light chain (NfL) in the plasma. NfL is released to the plasma following axonal injury and degeneration. Histological examination of axons with antineurofilament H non-phosphorylated mouse antibody SMI-32 can also be used to assess axonal demyelination or breaks. NfH is phosphorylated in healthy axons and unphosphorylated in damaged axons. In addition, the effects of ozanimod on the CNS were examined in vivo using the cuprizone-induced mouse model of demyelination and in vitro in primary rodent astrocytes. Efficacy of ozanimod or compound (2-R) was examined in the cuprizone-induced mouse model of neuroprotection. C57BL/6 mice were treated with cuprizone (0.3% weight/weight orally) and rapamycin (10 mg/kg intraperitoneally daily) to demyelinate axons in the brain and concurrently treated with ozanimod (0.1, 0.3, or 1 mg/kg) or compound (2-S) (1 mg/kg) by daily oral gavage to investigate its neuroprotective activity. Neuroprotection was assessed through examination of axonal pathology in the corpus callosum using SMI-32 (antineurofilament H non-phosphorylated mouse monoclonal antibody) staining, functional assessment through kinematic gait analysis and the plasma biomarker neurofilament light chain (NfL). Further, direct activity of ozanimod was examined in resting and activated primary rodent astrocytes in vitro.

| MAO-B inhibition (in words) [1] | IC50 ([1]; kynuramine 25 μM, 10 min incubation) [nM] | SMILES | overall kinematic gait score ([2]; 0.1, 0.3, or 1 mg/kg vs vehicle (FIG. 3)) | kinematic gait ([2]; cuprizone-induced demyelinated mice vs vehicle, 1 mg/kg (FIG. 2)) | neuroprotection, reduction in swollen and transected axons ([2]; cuprizone-induced mouse model) |
| --- | --- | --- | --- | --- | --- |
| potent inhibition | 6.6 | CC(C)Oc1ccc(-c2nc(-c3cccc4c3CCC4=O)no2)cc1C#N [Compound 1, 2-isopropoxy-5-(3-(1-oxo-2,3-dihydro-1H-inden-4-yl)-1,2,4-oxadiazol-5-yl)benzonitrile] | – | – | – |
| – | – | CC(C)Oc1ccc(-c2nc(-c3cccc4c3CC[C@@H]4NCCO)no2)cc1C#N [Ozanimod] | significantly improved overall kinematic gait score | improved kinematic gait | neuroprotective |
